From the supplement of paper PMC10307832

How the values were obtained:
Assay in all cases: relative viability (nuclei count vs DMSO), 5 days (fraction); higher = more cells survive
[1] = compound: OCc1c[nH]c2ccccc12 [Indole-3-carbinol] + COc1cc2c(Oc3ccc(NC(=O)C4(C(=O)Nc5ccc(F)cc5)CC4)cc3F)ccnc2cc1OCCCN1CCOCC1 [Foretinib] (partner 0.25 µM)
How it was run: (§1)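 Nuclei were stained with Hoechst during a one-step fixation (final 0.05% Triton X-100, 1% formaldehyde, 1 ug/ml Hoechst) carried out 5 days after dosing, then counted on 4× images. The cells, lung cancer lines in 1536-well plates, had been dosed by pin tool the day after seeding with one drug alone or a fixed anchor-drug dose plus five library-drug doses (not always all listed) in √10 steps. Relative viability is the nuclei count in treated wells divided by that in vehicle wells, and each value is the median of duplicate plates.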

[2] = compound: OCc1c[nH]c2ccccc12 [Indole-3-carbinol] + C[C@]1(O)C[C@@H](c2nc(-c3ccc4ccc(-c5ccccc5)nc4c3)c3c(N)nccn32)C1 [Linsitinib] (partner 1 µM)
How it was run: as §1

[3] = compound: OCc1c[nH]c2ccccc12 [Indole-3-carbinol] + C[C@@H](Oc1cc(-c2cnn(C3CCNCC3)c2)cnc1N)c1c(Cl)ccc(F)c1Cl [Crizotinib] (partner 1 µM)
How it was run: as §1

[4] = compound: OCc1c[nH]c2ccccc12 [Indole-3-carbinol] + N=C(N)NC(=N)NCCc1ccccc1 [Phenformin] (partner 250 µM)
How it was run: as §1

Indole-3-carbinol = compound: OCc1c[nH]c2ccccc12 [Indole-3-carbinol]
How it was run: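 Viability here means nuclei in treated wells divided by nuclei in vehicle wells, reported as the median across plates. Only plates with control CV below 25% and at least one doubling passed. Lung cancer cell lines in 1536-well plates were exposed to five √10-spaced library-drug doses for 5 days and counted from 4× Hoechst images in MetaXpress.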

Cell Line	relative viability ([1]; first compound 0.253 µM)	relative viability ([1]; first compound 0.8 µM)	relative viability ([1]; first compound 2.53 µM)	relative viability ([1]; first compound 8 µM)	relative viability ([2]; first compound 0.253 µM)	relative viability ([2]; first compound 0.8 µM)	relative viability ([2]; first compound 2.53 µM)	relative viability ([2]; first compound 8 µM)	relative viability ([3]; first compound 0.253 µM)	relative viability ([3]; first compound 0.8 µM)	relative viability ([3]; first compound 2.53 µM)	relative viability ([3]; first compound 8 µM)	relative viability ([4]; first compound 0.253 µM)	relative viability ([4]; first compound 0.8 µM)	relative viability ([4]; first compound 2.53 µM)	relative viability ([4]; first compound 8 µM)	relative viability (Indole-3-carbinol; 0.253 µM)	relative viability (Indole-3-carbinol; 0.8 µM)	relative viability (Indole-3-carbinol; 2.53 µM)	relative viability (Indole-3-carbinol; 8 µM)
SK-LU-1	0.851	0.836	0.911	0.763	1.05	1.19	1.09	1.02	1.01	1.01	0.989	0.823	0.582	0.57	0.58	0.534	1.11	0.969	1.03	0.996
NCI-H1437	1.29	1.34	1.24	1.2	0.986	1.16	1.04	0.894	0.959	1.03	0.943	0.9	0.308	0.323	0.29	0.448	1.01	1.01	0.992	0.945
NCI-H1734	0.91	0.802	0.887	0.674	0.947	0.872	0.835	0.813	0.72	0.777	0.637	0.632	0.406	0.394	0.34	0.333	0.997	0.866	0.973	0.932
LK-2	1.39	1.2	1.42	1.07	0.627	0.572	0.47	0.536	0.239	0.218	0.198	0.229	0.245	0.381	0.606	0.563	0.929	0.872	1.02	1.05
HCC-15	1.04	1.14	1.07	1.01	0.845	1.02	0.824	0.843	0.79	0.879	0.852	0.763	0.54	0.556	0.472	0.468	1.14	0.999	0.995	0.973
HCC-366	0.959	0.861	0.902	0.926	0.663	0.369	0.615	0.705	0.606	0.497	0.732	0.561	0.645	0.61	0.696	0.565	1.09	0.905	0.999	1.03
NCI-H650	1.05	1.02	1.04	0.953	0.948	0.773	0.909	0.712	0.716	0.729	0.8	0.638	0.47	0.491	0.484	0.416	1	1.03	1.05	0.893
NCI-H2347	0.743	–	1.21	0.931	0.986	1.06	1.04	0.793	0.747	0.607	0.706	0.671	0.405	0.34	0.496	0.435	1.08	1.07	1.09	0.961
LXF-289	0.973	0.978	0.968	0.945	0.977	1.03	0.996	0.892	0.863	0.933	0.824	0.729	0.527	0.553	0.488	0.513	1.09	1.1	1	0.946
BEN	0.566	0.501	0.651	0.624	0.863	0.827	0.84	0.847	0.857	0.722	0.917	0.743	0.269	0.262	0.265	0.253	0.941	0.998	1.03	0.91
NCI-H2023	0.978	0.971	0.822	0.916	0.728	0.667	0.687	0.589	0.716	0.732	0.651	0.631	0.454	0.426	0.434	0.399	0.952	0.963	0.984	0.935
NCI-H661	1.02	1.04	1.03	1.01	0.542	0.378	0.623	0.676	1.05	–	1.16	0.977	0.281	0.253	0.272	0.266	0.957	0.904	1.03	0.988
NCI-H1355	0.961	1.01	0.998	0.978	0.774	0.802	0.764	0.715	1.17	1.08	0.971	1.06	0.48	0.455	0.435	0.462	1	1.11	0.97	0.961
COR-L 105	1.22	0.838	0.963	1.03	0.693	0.767	0.99	0.65	0.93	0.681	0.781	0.731	0.497	0.408	0.488	0.416	0.964	0.845	0.958	0.844
NCI-H2228	0.945	0.897	0.984	0.935	0.513	0.934	0.96	0.604	0.582	0.461	0.567	0.454	0.327	0.354	0.365	0.383	1.09	0.84	1.19	0.999
NCI-H838	0.997	0.985	1.01	1.02	1.09	0.975	1.02	0.951	0.972	0.717	0.97	0.828	0.607	0.526	0.735	0.553	1.01	0.935	0.98	0.935
